Data as given in PubChem BioAssay (NCI).
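Results reflect a 48-hour exposure of cells in 96-well plates to compound at five concentrations. The concentration for 50% growth inhibition is given as GI50. TGI marks complete inhibition of growth.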

Columns and labels:
Assay in all cases: DTP human tumour cell line panel, 48 h
[1] = tested on: COLO 205 colon
[2] = tested on: MOLT-4 leukemia
[3] = tested on: OVCAR-3 ovarian
[4] = tested on: OVCAR-5 ovarian
[5] = tested on: SK-MEL-2 melanoma
[6] = tested on: HT29 colon
[7] = tested on: LOX IMVI melanoma
[8] = tested on: CCRF-CEM leukemia
[9] = tested on: K-562 leukemia
[10] = tested on: 786-0 renal
[11] = tested on: UACC-257 melanoma
[12] = tested on: RXF 393 renal
[13] = tested on: SNB-19 CNS
[14] = tested on: MALME-3M melanoma
[15] = tested on: NCI-H23 lung
[16] = tested on: T-47D breast
[17] = tested on: UO-31 renal
[18] = tested on: KM12 colon
[19] = tested on: BT-549 breast
[20] = tested on: DU-145 prostate
[21] = tested on: MCF7 breast
[22] = tested on: IGROV1 ovarian
[23] = tested on: NCI/ADR-RES ovarian
[24] = tested on: CAKI-1 renal
[25] = tested on: A498 renal
[26] = tested on: SNB-75 CNS
[27] = tested on: HCT-15 colon
[28] = tested on: SR leukemia
[29] = tested on: HCC-2998 colon
[30] = tested on: HOP-62 NSCLC
[31] = tested on: HOP-92 NSCLC
[32] = tested on: NCI-H522 lung
[33] = tested on: SK-MEL-28 melanoma
[34] = tested on: HCT-116 colon
[35] = tested on: SK-MEL-5 melanoma
[36] = tested on: SF-539 CNS
[37] = tested on: OVCAR-8 ovarian
[38] = tested on: M14 melanoma
[39] = tested on: SW-620 colon
[40] = tested on: NCI-H226 lung
[41] = tested on: UACC-62 melanoma
[42] = tested on: SF-268 CNS
[43] = tested on: NCI-H460 lung
[44] = tested on: RPMI-8226 leukemia
[45] = tested on: PC-3 prostate
[46] = tested on: U251 CNS
[47] = tested on: MDA-MB-231 breast
[48] = tested on: EKVX NSCLC
[49] = tested on: SF-295 CNS
[50] = tested on: OVCAR-4 ovarian
[51] = tested on: HS 578T breast
[52] = tested on: TK-10 renal
[53] = tested on: SN12C renal
[54] = tested on: MDA-MB-435
[55] = tested on: MDA-MB-468 breast
[56] = tested on: SK-OV-3 ovarian
[57] = tested on: HL-60(TB) leukemia
[58] = tested on: A549 NSCLC
[59] = tested on: ACHN renal

O=C(CSc1nnc(-c2ccc(-c3nc4ccccc4[nH]3)cc2)o1)Nc1ccc(Br)cc1 was tested, and the GI50 [1] was 10.6 µM, the TGI [1] was 30.5 µM and the GI50 [2] was 3.26 µM. For the same molecule, the TGI [2] was 18 µM, the GI50 [3] was 2.74 µM and the TGI [3] was 8.95 µM. For the same molecule, the GI50 [4] was 6.53 µM, the TGI [4] was 20.4 µM and the GI50 [5] was 12.2 µM. For the same molecule, the TGI [5] was 26.4 µM, the GI50 [6] was 2.87 µM and the TGI [6] was 12.8 µM. For the same molecule, the GI50 [7] was 1.73 µM, the TGI [7] was 3.48 µM and the GI50 [8] was 3.41 µM. It also gave a TGI [8] of 15.8 µM, a GI50 [9] of 3.01 µM and a TGI [9] of over 100 µM. For the same molecule, the GI50 [10] was 2.17 µM, the TGI [10] was 4.29 µM and the GI50 [11] was 4.76 µM. It also gave a TGI [11] of 20.5 µM, a GI50 [12] of 2.26 µM and a TGI [12] of 5.82 µM. It also gave a GI50 [13] of 5.36 µM, a TGI [13] of 18 µM and a GI50 [14] of 2.37 µM. It also gave a TGI [14] of 6.33 µM, a GI50 [15] of 3.22 µM and a TGI [15] of 12.4 µM. It also gave a GI50 [16] of 3.81 µM, a TGI [16] of 20.2 µM and a GI50 [17] of 5.91 µM. It also gave a TGI [17] of 18.9 µM, a GI50 [18] of 3.98 µM and a TGI [18] of 18.6 µM. For the same molecule, the GI50 [19] was 3.03 µM, the TGI [19] was 7.93 µM and the GI50 [20] was 3.2 µM. It also gave a TGI [20] of 10.8 µM, a GI50 [21] of 2.88 µM and a TGI [21] of 12.5 µM. The GI50 [22] was 10.3 µM, the TGI [22] was 22.6 µM and the GI50 [23] was 5.14 µM. The TGI [23] was 19.1 µM, the GI50 [24] was 2.03 µM and the TGI [24] was 4.83 µM. The GI50 [25] was 19 µM, the TGI [25] was 35.3 µM and the GI50 [26] was 2 µM. It also gave a TGI [26] of 7.51 µM, a GI50 [27] of 3.66 µM and a TGI [27] of 15.1 µM. For the same molecule, the GI50 [28] was 4.57 µM, the TGI [28] was 40.1 µM and the GI50 [29] was 12.9 µM. The TGI [29] was 31.2 µM, the GI50 [30] was 2.88 µM and the TGI [30] was 8.21 µM. For the same molecule, the GI50 [31] was 3.24 µM, the TGI [31] was 11.5 µM and the GI50 [32] was 2.74 µM. The TGI [32] was 14.6 µM, the GI50 [33] was 2.62 µM and the TGI [33] was 7.91 µM. It also gave a GI50 [34] of 3.43 µM, a TGI [34] of 13.7 µM and a GI50 [35] of 4.8 µM. For the same molecule, the TGI [35] was 17.3 µM, the GI50 [36] was 2 µM and the TGI [36] was 4.7 µM. It also gave a GI50 [37] of 4.11 µM, a TGI [37] of 15.6 µM and a GI50 [38] of 3.82 µM. The TGI [38] was 17.8 µM, the GI50 [39] was 3.1 µM and the TGI [39] was 11.6 µM. It also gave a GI50 [40] of 2.63 µM, a TGI [40] of 9.59 µM and a GI50 [41] of 4.13 µM. It also gave a TGI [41] of 15.5 µM, a GI50 [42] of 2.44 µM and a TGI [42] of 6.61 µM. It also gave a GI50 [43] of 1.95 µM, a TGI [43] of 4.54 µM and a GI50 [44] of 3.24 µM. For the same molecule, the TGI [44] was 36.1 µM, the GI50 [45] was 2.57 µM and the TGI [45] was 8.99 µM. For the same molecule, the GI50 [46] was 6.78 µM, the TGI [46] was 20.3 µM and the GI50 [47] was 4.38 µM. It also gave a TGI [47] of 15.1 µM, a GI50 [48] of 4.2 µM and a TGI [48] of 16.3 µM. For the same molecule, the GI50 [49] was 2.31 µM, the TGI [49] was 5.97 µM and the GI50 [50] was 3.23 µM. It also gave a TGI [50] of 12.3 µM, a GI50 [51] of 3.39 µM and a TGI [51] of 16.3 µM. For the same molecule, the GI50 [52] was 14.8 µM, the TGI [52] was 29.6 µM and the GI50 [53] was 3.4 µM. For the same molecule, the TGI [53] was 12.7 µM, the GI50 [54] was 2.11 µM and the TGI [54] was 7.73 µM. For the same molecule, the GI50 [55] was 6.47 µM, the TGI [55] was 20.7 µM and the GI50 [56] was 12.1 µM. For the same molecule, the TGI [56] was 34.9 µM, the GI50 [57] was 6.37 µM and the TGI [57] was 33.1 µM. For the same molecule, the GI50 [58] was 2.4 µM, the TGI [58] was 6.24 µM and the GI50 [59] was 3.55 µM. The TGI [59] was 12.8 µM.
